Results: ChEMBL document CHEMBL1132959, “Design of potent dicyclic (1-5/4-10) gonadotropin releasing hormone (GnRH) antagonists” (J Med Chem, 2000)
Square brackets hold non-standard residues; d marks the D form. Peptide text beside a SMILES is read from it. dPhe(4-Cl) = N[C@H](Cc1ccc(Cl)cc1)C(=O)O; NMeL = CN[C@@H](CC(C)C)C(=O)O; ΔPro = O=C(O)[C@@H]1C=CCN1; βAla = NCCC(=O)O

Assays:
Rattus norvegicus [1] = organism: Rattus norvegicus; test: Antiovulatory potency at 10 ug/rat expressed as rats ovulating by total no. of rats (4/5); format: functional
Rattus norvegicus [2] = organism: Rattus norvegicus; test: Antiovulatory potency at 25 ug/rat expressed as rats ovulating by total no. of rats (3/8); format: functional
Rattus norvegicus [3] = organism: Rattus norvegicus; test: Antiovulatory potency at 50 ug/rat expressed as rats ovulating by total no. of rats (0/3); format: functional
[4] = biological target: T1, Gonadotropin-releasing hormone receptor (Rattus norvegicus, UniProt P30969); test: Affinity for rat Gonadotropin-releasing hormone receptor membrane evaluated using HEK293 cells transfected with rat Gonadotropin-releasing hormone receptor; format: cell-based
T1 sequence (P30969 whole entry): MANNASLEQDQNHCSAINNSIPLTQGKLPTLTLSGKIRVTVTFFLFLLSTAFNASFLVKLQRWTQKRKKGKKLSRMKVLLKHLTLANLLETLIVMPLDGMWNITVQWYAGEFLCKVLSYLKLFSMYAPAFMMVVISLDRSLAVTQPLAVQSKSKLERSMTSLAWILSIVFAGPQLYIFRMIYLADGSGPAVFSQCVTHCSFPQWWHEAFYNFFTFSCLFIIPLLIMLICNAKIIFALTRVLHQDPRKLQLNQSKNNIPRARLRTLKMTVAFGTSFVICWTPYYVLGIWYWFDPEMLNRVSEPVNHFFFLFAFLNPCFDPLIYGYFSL

Rattus norvegicus [5] = organism: Rattus norvegicus; test: Antiovulatory potency at 25 ug/rat expressed as rats ovulating by total no. of rats (4/8); format: functional
Rattus norvegicus [6] = organism: Rattus norvegicus; test: Antiovulatory potency at 10 ug/rat expressed as rats ovulating by total no. of rats (4/4); format: functional
[7] = biological target: T1, Gonadotropin-releasing hormone receptor; test: Affinity for rat gonadotrophin releasing hormone (GnRH) receptor using HEK293 cells transfected with rat Gonadotropin-releasing hormone receptor; format: cell-based; conditions: hek293
Rattus norvegicus [8] = organism: Rattus norvegicus; test: Antiovulatory potency at 5 ug/rat expressed as rats ovulating by total no. of rats (1/8); format: functional
Rattus norvegicus [9] = organism: Rattus norvegicus; test: Antiovulatory potency at 2.5 ug/rat expressed as rats ovulating by total no. of rats (0/5); format: functional
Rattus norvegicus [10] = organism: Rattus norvegicus; test: Antiovulatory potency at 250 ug/rat expressed as rats ovulating by total no. of rats (5/5); format: functional
Rattus norvegicus [11] = organism: Rattus norvegicus; test: Antiovulatory potency at 100 ug/rat expressed as rats ovulating by total no. of rats (0/4); format: functional
Rattus norvegicus [12] = organism: Rattus norvegicus; test: Antiovulatory potency at 100 ug/rat expressed as rats ovulating by total no. of rats (2/6); format: functional
Rattus norvegicus [13] = organism: Rattus norvegicus; test: Antiovulatory potency at 250 ug/rat expressed as rats ovulating by total no. of rats (3/6); format: functional
Rattus norvegicus [14] = organism: Rattus norvegicus; test: Antiovulatory potency at 5 ug/rat expressed as rats ovulating by total no. of rats (2/3); format: functional
Rattus norvegicus [15] = organism: Rattus norvegicus; test: Antiovulatory potency at 50 ug/rat expressed as rats ovulating by total no. of rats (3/3); format: functional
Rattus norvegicus [16] = organism: Rattus norvegicus; test: Antiovulatory potency at 25 ug/rat expressed as rats ovulating by total no. of rats (2/4); format: functional
Rattus norvegicus [17] = organism: Rattus norvegicus; test: Antiovulatory potency at 10 ug/rat expressed as rats ovulating by total no. of rats (0/5); format: functional
Rattus norvegicus [18] = organism: Rattus norvegicus; test: Antiovulatory potency at 1500 ug/rat expressed as rats ovulating by total no. of rats (9/10); format: functional

## CC(=O)N[C@@H]1CCC(=O)NCCCC[C@H]2NC(=O)[C@@H](CC(=O)NC[C@H](C(N)=O)NC(=O)[C@H]3CCCN3C(=O)[C@H](CCCN=C(N)N)NC(=O)[C@@H](CC(C)C)NC(=O)[C@@H](Cc3ccc4ccccc4c3)NC2=O)NC(=O)[C@@H](Cc2c[nH]c3ccccc23)NC(=O)[C@H](Cc2ccc(Cl)cc2)NC1=O
Rattus norvegicus [1]
  Ovulating rats: 4
Rattus norvegicus [2]
  Ovulating rats: 3
Rattus norvegicus [3]
  Ovulating rats: 0
[4]
  Ki: 0.26 nM

## CC(=O)N[C@@H]1CCC(=O)NCCC[C@H]2NC(=O)[C@@H](CC(=O)NC[C@H](C(N)=O)NC(=O)[C@H]3CCCN3C(=O)[C@H](CCCN=C(N)N)NC(=O)[C@@H](CC(C)C)NC(=O)[C@@H](Cc3ccc4ccccc4c3)NC2=O)NC(=O)[C@@H](Cc2c[nH]c3ccccc23)NC(=O)[C@H](Cc2ccc(Cl)cc2)NC1=O
Rattus norvegicus [5]
  Ovulating rats: 4
Rattus norvegicus [6]
  Ovulating rats: 4
[7]
  Ki: 0.86 nM

## CC(=O)N[C@@H]1CC(=O)NCCC(=O)NCC[C@H]2NC(=O)[C@@H](CC(=O)NC[C@H](C(N)=O)NC(=O)[C@H]3CCCN3C(=O)[C@H](CCCN=C(N)N)NC(=O)[C@@H](CC(C)C)NC(=O)[C@@H](Cc3ccc4ccccc4c3)NC2=O)NC(=O)[C@@H](Cc2c[nH]c3ccccc23)NC(=O)[C@H](Cc2ccc(Cl)cc2)NC1=O
Rattus norvegicus [8]
  Ovulating rats: 1
Rattus norvegicus [9]
  Ovulating rats: 0
[7]
  Ki: 0.15 nM

## CC(=O)N[C@H](Cc1ccc2ccccc2c1)C(=O)N[C@H](Cc1ccc(Cl)cc1)C(=O)N[C@@H]1CC(=O)NCCCC[C@@H]2NC(=O)[C@H](CC(C)C)NC(=O)[C@@H](CCCN=C(N)N)NC(=O)[C@H](Cc3ccc(O)cc3)NC(=O)[C@H](CC(=O)NC[C@@H](C(N)=O)NC(=O)[C@@H]3CCCN3C2=O)NC1=O
Rattus norvegicus [10]
  Ovulating rats: 5
Rattus norvegicus [11]
  Ovulating rats: 0

## CC(=O)N[C@@H]1CCC(=O)NCCCC[C@@H]2NC(=O)[C@H](CC(C)C)NC(=O)[C@@H](Cc3ccc4ccccc4c3)NC(=O)[C@H](CCCN=C(N)N)NC(=O)[C@H](CC(=O)NC[C@H](C(N)=O)NC(=O)[C@@H]3CCCN3C2=O)NC(=O)[C@@H](Cc2cccnc2)NC(=O)[C@H](Cc2ccc(Cl)cc2)NC1=O
Rattus norvegicus [12]
  Ovulating rats: 2
Rattus norvegicus [13]
  Ovulating rats: 3
[7]
  Ki: 1.8 nM

## CC(=O)N[C@@H]1CCC(=O)NCC(=O)NCC[C@H]2NC(=O)[C@@H](CC(=O)NC[C@H](C(N)=O)NC(=O)[C@H]3CCCN3C(=O)[C@H](CCCN=C(N)N)NC(=O)[C@@H](CC(C)C)NC(=O)[C@@H](CCCN=C(N)N)NC2=O)NC(=O)[C@@H](Cc2c[nH]c3ccccc23)NC(=O)[C@H](Cc2ccc(Cl)cc2)NC1=O
Rattus norvegicus [14]
  Ovulating rats: 2
[7]
  Ki: 17 nM
Rattus norvegicus [15]
  Ovulating rats: 3

## CC(=O)N[C@@H]1CCC(=O)N[C@H](C)C(=O)NCC[C@H]2NC(=O)[C@@H](CC(=O)NC[C@H](C(N)=O)NC(=O)[C@H]3CCCN3C(=O)[C@H](CCCN=C(N)N)NC(=O)[C@@H](CC(C)C)NC(=O)[C@@H](Cc3ccc4ccccc4c3)NC2=O)NC(=O)[C@@H](Cc2c[nH]c3ccccc23)NC(=O)[C@H](Cc2ccc(Cl)cc2)NC1=O
Rattus norvegicus [16]
  Ovulating rats: 2
[7]
  Ki: 0.22 nM
Rattus norvegicus [17]
  Ovulating rats: 0

## CC(C)C[C@H]1C(=O)N[C@@H](CCCN=C(N)N)C(=O)N2CCC[C@H]2C(=O)NCCC(=O)N2CC=C[C@H]2C(=O)N[C@H](Cc2ccc(Cl)cc2)C(=O)N[C@H](Cc2c[nH]c3ccccc23)C(=O)N[C@@H](CO)C(=O)N[C@@H](Cc2ccc(O)cc2)C(=O)N[C@H](Cc2c[nH]c3ccccc23)C(=O)N1C (cyclo([NMeL]RP[βAla][ΔPro][dPhe(4-Cl)][dW]SY[dW]))
Rattus norvegicus [18]
  Ovulating rats: 9
